How the values were obtained:
Assay in all cases: relative viability (nuclei count vs DMSO), 5 days (fraction); higher = more cells survive
[1] = compound: C1COCCN1C2=NC(=NC3=C2OC4=C3C=CC=N4)C5=CC(=CC=C5)NC(=O)C6=CN=C(C=C6)N
Summary of the method: (§1)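 Acceptance criteria were a control CV below 25% and at least one doubling per plate. Lung cancer cell lines in 1536-well plates got five library-drug doses (not always all listed) √10 apart by pinning and were left 5 days with no medium change. Viability divides treated-well nuclei by vehicle-well nuclei and is the median across plates. Nuclei were counted by MetaXpress from 4× Hoechst images.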

Entinostat = compound: Nc1ccccc1NC(=O)c1ccc(CNC(=O)OCc2cccnc2)cc1 [Entinostat]
Summary of the method: as §1

SGI-1776 = compound: CN1CCC(CNc2ccc3ncc(-c4cccc(OC(F)(F)F)c4)n3n2)CC1 [SGI-1776]
Summary of the method: as §1

[2] = compound: C1COCCN1C2=NC(=NC3=C2OC4=C3C=CC=N4)C5=CC(=CC=C5)NC(=O)C6=CN=C(C=C6)N + Cc1nc(NC(=O)N2CCC[C@H]2C(N)=O)sc1-c1ccnc(C(C)(C)C(F)(F)F)c1 [Alpelisib] (partner 2 µM)
Summary of the method: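 Relative viability was taken as the ratio of nuclei in treated wells to nuclei in vehicle wells. Lung cancer cell lines in 1536-well plates received compounds by pin tool one day after seeding, either one drug alone or a fixed anchor-drug dose plus five library-drug doses (not always all listed) in √10 steps. Nuclei were counted on 4× images after 5 days of treatment, and values are medians of duplicate plates.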

| Cell Line | relative viability ([1]; 0.02 µM) | relative viability ([1]; 0.06325 µM) | relative viability ([1]; 0.2 µM) | relative viability ([1]; 0.6325 µM) | relative viability ([1]; 2 µM) | relative viability (Entinostat; 0.02 µM) | relative viability (Entinostat; 0.06325 µM) | relative viability (Entinostat; 0.2 µM) | relative viability (Entinostat; 0.6325 µM) | relative viability (Entinostat; 2 µM) | relative viability (SGI-1776; 0.08 µM) | relative viability (SGI-1776; 0.8 µM) | relative viability (SGI-1776; 2.53 µM) | relative viability (SGI-1776; 8 µM) | relative viability ([2]; first compound 0.02 µM) | relative viability ([2]; first compound 0.06325 µM) | relative viability ([2]; first compound 0.2 µM) | relative viability ([2]; first compound 0.6325 µM) | relative viability ([2]; first compound 2 µM) |
| --- | --- | --- | --- | --- | --- | --- | --- | --- | --- | --- | --- | --- | --- | --- | --- | --- | --- | --- | --- |
| NCI-H1651 | 0.994 | 0.994 | 0.978 | 0.951 | 0.8 | 1.02 | 0.971 | 1.02 | 0.908 | 0.692 | 1 | 0.999 | 0.971 | 0.929 | 0.904 | 0.915 | 0.899 | 0.897 | 0.443 |
| NCI-H647 | 0.862 | 1.02 | 0.905 | 0.867 | 0.546 | 1.05 | 1.04 | 0.897 | 0.462 | 0.165 | 0.988 | 1.09 | 0.839 | 0.544 | 1.21 | 1.33 | 0.996 | 1.21 | 0.356 |
| NCI-H1944 | 0.96 | 1.01 | 0.931 | 0.985 | 0.918 | 0.933 | 0.851 | 0.714 | 0.321 | 0.261 | 0.968 | 1.06 | 0.981 | 0.739 | 0.894 | 0.705 | 0.851 | 0.782 | 0.731 |
| LK-2 | 0.998 | 1.08 | 1.09 | 0.757 | 0.585 | 1.04 | 1.03 | 0.868 | 0.652 | 0.349 | 1.09 | 1.03 | 1.03 | 0.77 | 1.07 | 1.15 | 1.2 | 1.06 | 0.856 |
| HCC-15 | 1.03 | 1.09 | 0.971 | 0.966 | 0.75 | 0.939 | 0.962 | 0.899 | 0.457 | 0.333 | 1.04 | 1.1 | 0.989 | 0.833 | 0.901 | 0.848 | 0.843 | 0.827 | 0.637 |
| NCI-H838 | 0.852 | 0.947 | 0.917 | 0.791 | 0.57 | 1.11 | 1.08 | 1.08 | 0.733 | 0.406 | 0.928 | 0.994 | 0.936 | 0.645 | 1.12 | 0.945 | 0.923 | 0.968 | 0.524 |
| HOP-62 | 0.974 | 1.15 | 1.09 | 0.961 | 0.762 | 1.05 | 0.974 | 0.97 | 0.633 | 0.356 | 1.09 | 0.956 | 1.05 | 0.998 | 0.818 | 1.13 | 0.947 | 0.979 | 0.518 |
| Calu-6 | 1.05 | 1.04 | 1.01 | 0.998 | 0.685 | 1.02 | 1.02 | 1.02 | 0.761 | 0.544 | 1.06 | 1.02 | 0.976 | 0.852 | 1.09 | 0.979 | 0.882 | 0.936 | 0.721 |
| NCI-H322M | 0.903 | 0.923 | 0.944 | 0.854 | 0.725 | 1.02 | 1.11 | 1.14 | 0.961 | 0.859 | 0.975 | 1.01 | 1.05 | 0.69 | 0.81 | 0.773 | 0.768 | 0.638 | 0.665 |
